Measured values from BindingDB's records for doi:10.1021/acs.jmedchem.2c02005 (The Hong Kong Polytechnic University, 2023).
pEC50, pIC50: −log10 of the molar value. Values belong to the molecule of their own block, whether it stands above or below them.

Assays:
[1] = Negative allosteric modulator activity at human P-gp C1227A mutant expressed in HEK293FT cells assessed as reversal of P-gp mediated PTX resistance by measuring paclitaxel IC50 incubated for 5 days by MTS assay (Rvb = 352.1 +/- 30.6 nM)
[2] = Negative allosteric modulator activity at human P-gp T1226A mutant expressed in HEK293FT cells assessed as reversal of P-gp mediated PTX resistance by measuring paclitaxel IC50 incubated for 5 days by MTS assay (Rvb = 6.3 +/- 2.1 nM)
[3] = Negative allosteric modulator activity at human P-gp I1115F mutant expressed in HEK293FT cells assessed as reversal of P-gp mediated PTX resistance by measuring paclitaxel IC50 incubated for 5 days by MTS assay (Rvb = 663.1 +/- 10.2 nM)
[4] = Negative allosteric modulator activity at human P-gp Q1193T mutant expressed in HEK293FT cells assessed as reversal of P-gp mediated PTX resistance by measuring paclitaxel IC50 incubated for 5 days by MTS assay (Rvb = 523.6 +/- 33.7 nM)
[5] = Negative allosteric modulator activity at human P-gp Q1193F mutant expressed in HEK293FT cells assessed as reversal of P-gp mediated PTX resistance by measuring paclitaxel IC50 incubated for 5 days by MTS assay (Rvb = 453.6 +/- 14.8 nM)
[6] = Negative allosteric modulator activity at human P-gp I1115E mutant expressed in HEK293FT cells assessed as reversal of P-gp mediated PTX resistance by measuring paclitaxel IC50 incubated for 5 days by MTS assay (Rvb = 7.4 +/- 0.8 nM)
[7] = Negative allosteric modulator activity at human P-gp I1115N mutant expressed in HEK293FT cells assessed as reversal of P-gp mediated PTX resistance by measuring paclitaxel IC50 incubated for 5 days by MTS assay (Rvb = 10.2 +/- 1.6 nM)
[8] = Negative allosteric modulator activity at human P-gp Q1193A mutant expressed in HEK293FT cells assessed as reversal of P-gp mediated PTX resistance by measuring paclitaxel IC50 incubated for 5 days by MTS assay (Rvb = 483.4 +/- 17.2 nM)
[9] = Negative allosteric modulator activity at human P-gp Q1193C mutant expressed in HEK293FT cells assessed as reversal of P-gp mediated PTX resistance by measuring paclitaxel IC50 incubated for 5 days by MTS assay (Rvb = 359.4 +/- 22.3 nM)
[10] = Negative allosteric modulator activity at human P-gp G1114I mutant expressed in HEK293FT cells assessed as reversal of P-gp mediated PTX resistance by measuring paclitaxel IC50 incubated for 5 days by MTS assay (Rvb = 10.2 +/- 2.4 nM)
[11] = Negative allosteric modulator activity at human P-gp Q1193E mutant expressed in HEK293FT cells assessed as reversal of P-gp mediated PTX resistance by measuring paclitaxel IC50 incubated for 5 days by MTS assay (Rvb = 395.8 +/- 13.4 nM)
[12] = Negative allosteric modulator activity at human P-gp I1115A mutant expressed in HEK293FT cells assessed as reversal of P-gp mediated PTX resistance by measuring paclitaxel IC50 incubated for 5 days by MTS assay (Rvb = 7.5 +/- 2.4 nM)
[13] = Negative allosteric modulator activity at human P-gp T1226Y mutant expressed in HEK293FT cells assessed as reversal of P-gp mediated PTX resistance by measuring paclitaxel IC50 incubated for 5 days by MTS assay (Rvb = 449.3 +/- 31.2 nM)
[14] = Negative allosteric modulator activity at human P-gp H1195A mutant expressed in HEK293FT cells assessed as reversal of P-gp mediated PTX resistance by measuring paclitaxel IC50 incubated for 5 days by MTS assay (Rvb = 3.4 +/- 1.5 nM)
[15] = Negative allosteric modulator activity at human P-gp Q1193N mutant expressed in HEK293FT cells assessed as reversal of P-gp mediated PTX resistance by measuring paclitaxel IC50 incubated for 5 days by MTS assay (Rvb = 560.2 +/- 43.9 nM)
[16] = Negative allosteric modulator activity at human P-gp I1115Y mutant expressed in HEK293FT cells assessed as reversal of P-gp mediated PTX resistance by measuring paclitaxel IC50 incubated for 5 days by MTS assay (Rvb = 6.9 +/- 1.2 nM)
[17] = Negative allosteric modulator activity at human P-gp G1114V mutant expressed in HEK293FT cells assessed as reversal of P-gp mediated PTX resistance by measuring paclitaxel IC50 incubated for 5 days by MTS assay (Rvb = 3.4 +/- 0.5 nM)
[18] = Negative allosteric modulator activity at human P-gp L1113A mutant expressed in HEK293FT cells assessed as reversal of P-gp mediated PTX resistance by measuring paclitaxel IC50 incubated for 5 days by MTS assay (Rvb = 590 +/- 14.2 nM)
[19] = Negative allosteric modulator activity at human wildtype P-gp expressed in HEK293FT cells assessed as reversal of P-gp mediated PTX resistance by measuring paclitaxel IC50 incubated for 5 days by MTS assay (Rvb = 540.5 +/- 20.3 nM)
[20] = Negative allosteric modulator activity at human P-gp T1226W mutant expressed in HEK293FT cells assessed as reversal of P-gp mediated PTX resistance by measuring paclitaxel IC50 incubated for 5 days by MTS assay (Rvb = 363.5 +/- 24.9 nM)
[21] = Negative allosteric modulator activity at human P-gp I1115L mutant expressed in HEK293FT cells assessed as reversal of P-gp mediated PTX resistance by measuring paclitaxel IC50 incubated for 5 days by MTS assay (Rvb = 472 +/- 15.4 nM)
[22] = Negative allosteric modulator activity at P-gp in human LCC6MDR cells overexpressing P-gp assessed as reversal of P-gp mediated PTX resistance by measuring paclitaxel IC50 incubated for 5 days by MTS assay
[23] = Negative allosteric modulator activity at human P-gp T1226F mutant expressed in HEK293FT cells assessed as reversal of P-gp mediated PTX resistance by measuring paclitaxel IC50 incubated for 5 days by MTS assay (Rvb = 409.9 +/- 19.7 nM)
[24] = Negative allosteric modulator activity at human P-gp Q1193K mutant expressed in HEK293FT cells assessed as reversal of P-gp mediated PTX resistance by measuring paclitaxel IC50 incubated for 5 days by MTS assay (Rvb = 466.2 +/- 72.3 nM)
[25] = Negative allosteric modulator activity at human P-gp I1115W mutant expressed in HEK293FT cells assessed as reversal of P-gp mediated PTX resistance by measuring paclitaxel IC50 incubated for 5 days by MTS assay (Rvb = 7.8 +/- 0.9 nM)
[26] = Negative allosteric modulator activity at human P-gp I1115K mutant expressed in HEK293FT cells assessed as reversal of P-gp mediated PTX resistance by measuring paclitaxel IC50 incubated for 5 days by MTS assay (Rvb = 6.2 +/- 2 nM)
[27] = Negative allosteric modulator activity at human P-gp I1115M mutant expressed in HEK293FT cells assessed as reversal of P-gp mediated PTX resistance by measuring paclitaxel IC50 incubated for 5 days by MTS assay (Rvb = 9.8 +/- 0.9 nM)
[28] = Negative allosteric modulator activity at human P-gp G1114L mutant expressed in HEK293FT cells assessed as reversal of P-gp mediated PTX resistance by measuring paclitaxel IC50 incubated for 5 days by MTS assay (Rvb = 4.5 +/- 1.1 nM)
[29] = Negative allosteric modulator activity at human P-gp G1114A mutant expressed in HEK293FT cells assessed as reversal of P-gp mediated PTX resistance by measuring paclitaxel IC50 incubated for 5 days by MTS assay (Rvb = 5.6 +/- 1.1 nM)
[30] = Negative allosteric modulator activity at P-gp in human LCC6MDR cells overexpressing P-gp assessed as reversal of P-gp mediated paclitaxel resistance activity incubated for 5 days by MTS assay

pIC50 [1]: 8.28 | pIC50 [2]: 8.34 | pIC50 [3]: 7.37 | pIC50 [4]: 7.21 | pIC50 [5]: 7.09 | pIC50 [6]: 8.12 | pIC50 [7]: 8.00 | pIC50 [8]: 6.95 | pIC50 [9]: 7.54 | pIC50 [10]: 8.07 | pIC50 [11]: 7.03 | pIC50 [12]: 8.20 | pIC50 [13]: 8.14 | pIC50 [14]: 8.33 | pIC50 [15]: 7.96 | pIC50 [16]: 8.09 | pIC50 [17]: 8.46 | pIC50 [18]: 8.38 | pIC50 [19]: 8.13 | pIC50 [20]: 8.19 | pIC50 [21]: 8.00 | pIC50 [22]: 8.42 | pIC50 [23]: 8.16 | pIC50 [24]: 7.32 | pIC50 [25]: 8.08 | pIC50 [26]: 8.11 | pIC50 [27]: 8.10 | pIC50 [28]: 8.32 | pIC50 [29]: 8.37
SMILES: O=c1cc(-c2ccc(OCCOCCNCc3ccccc3)cc2)oc2ccccc12

pEC50 [30]: 6.05
SMILES: O=c1cc(-c2ccc(OCCOCCOCCOCCOc3ccc(-c4cc(=O)c5c(O)cc(O)cc5o4)cc3)cc2)oc2cc(O)cc(O)c12

pEC50 [30]: 6.44
SMILES: O=c1cc(-c2ccc(OCCOCCOCCOCCOc3ccc(-c4cc(=O)c5ccccc5o4)cc3)cc2)oc2ccccc12

pEC50 [30]: 6.22 | pIC50 [22]: 7.24
SMILES: C#CCN(CCOCCOc1ccc(-c2cc(=O)c3ccccc3o2)cc1)Cc1ccc(C2(C(F)(F)F)N=N2)cc1

pEC50 [30]: 6.97 | pIC50 [22]: 8.64
SMILES: O=c1cc(-c2ccc(OCCOCCNCc3ccc(C4(C(F)(F)F)N=N4)cc3)cc2)oc2ccccc12

pEC50 [30]: 5.52 | pIC50 [22]: 6.80
SMILES: O=c1cc(-c2ccc(OCCOCCN(Cc3ccc(C4(C(F)(F)F)N=N4)cc3)Cc3ccc(C4(C(F)(F)F)N=N4)cc3)cc2)oc2ccccc12

pEC50 [30]: 6.96 | pIC50 [22]: 8.68
SMILES: [N-]=[N+]=NCc1cc(CNCCOCCOc2ccc(-c3cc(=O)c4ccccc4o3)cc2)cc(N=[N+]=[N-])c1

Second part, the molecule before the results:

SMILES: O=c1cc(-c2ccc(O)cc2)oc2cc(O)cc(O)c12 [Naringenin, 18]
pEC50 [30]: < 5.00

SMILES: C#CCNc1cc(C)cc2c(=O)cc(-c3ccc(OCCOCCNCc4ccc(C5(C(F)(F)F)N=N5)cc4)cc3)oc12
pEC50 [30]: 6.13 | pIC50 [22]: 6.55

SMILES: C#CCOc1cccc2oc(-c3ccc(OCCOCCNCc4ccc(C5(C(F)(F)F)N=N5)cc4)cc3)cc(=O)c12
pEC50 [30]: 7.18 | pIC50 [22]: 8.85

SMILES: C#CCNc1cc(C)cc2c(=O)cc(-c3ccc(OCCOCCN(Cc4ccc(C5(C(F)(F)F)N=N5)cc4)Cc4ccc(C5(C(F)(F)F)N=N5)cc4)cc3)oc12
pIC50 [22]: 6.51
